Data as given in ChEMBL document CHEMBL4602696, “LMP2 Inhibitors as a Potential Treatment for Alzheimer's Disease” (J Med Chem, 2020).
The source made the active and inactive calls. No cut-off for these calls is given here.

Assays:
[1] = test system: Mus musculus; experiment: Antineuroinflammatory activity in APP transgenic Tg2576 mouse assessed as inhibition of retinal pigment epithelium degeneration at 10 mg/kg, iv administered twice per week for 3 weeks by immuno staining based confocal microscopic analysis relative to control; format: functional; set-up: scale not given: the % may be the effect or the level left
[2] = test system: RPMI-8226; experiment: Cytotoxicity against human RPM18226 cells up to 10 uM after 72 hrs by CellTiter 96 aqueous one solution reagent based assay; format: cell-based; settings: rpmi-8226, 72 h
[3] = Toxicity in transgenic Tg2576 ICR mouse at 10 mg/kg, iv administered twice per week for 3 weeks; format: organism-based; settings: in vivo, 504 h
[4] = biological target: T1, Proteasome subunit beta type-9 (Homo sapiens, UniProt P28065); experiment: Inhibition of LMP2 in human 20S immunoproteasome using Ac-PAL-AMC as substrate after 1 hr by fluorescence based microplate reader analysis
T1 sequence (P28065 whole entry): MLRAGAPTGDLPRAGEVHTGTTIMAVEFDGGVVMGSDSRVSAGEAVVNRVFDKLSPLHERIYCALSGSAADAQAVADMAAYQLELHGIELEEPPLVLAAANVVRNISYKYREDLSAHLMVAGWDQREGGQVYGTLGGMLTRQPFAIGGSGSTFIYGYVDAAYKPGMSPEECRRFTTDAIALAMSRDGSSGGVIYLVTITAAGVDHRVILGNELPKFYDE

[5] = test system: Mus musculus; experiment: Antialzheimer activity in transgenic Tg2576 ICR mouse assessed as reduction in IL-1alpha level in serum at 10 mg/kg, iv administered twice per week for 3 weeks by ELISA; format: functional, organism-based
[6] = biological target: T2, Proteasome subunit beta type-8 (Homo sapiens, UniProt P28062); experiment: Inhibition of LMP7 in human 20S immunoproteasome using Ac-ANW-AMC as substrate after 1 hr by fluorescence based microplate reader analysis
T2 sequence (P28062 whole entry): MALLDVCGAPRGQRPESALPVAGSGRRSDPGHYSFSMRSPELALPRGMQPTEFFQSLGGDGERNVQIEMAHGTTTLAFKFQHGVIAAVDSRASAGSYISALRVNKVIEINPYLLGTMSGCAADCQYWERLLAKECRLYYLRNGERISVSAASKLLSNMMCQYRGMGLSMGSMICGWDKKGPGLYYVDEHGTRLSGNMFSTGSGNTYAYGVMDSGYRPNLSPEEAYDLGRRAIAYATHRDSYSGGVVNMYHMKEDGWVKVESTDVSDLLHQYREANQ

[7] = Inhibition of LMP7/Beta 5 subunit chymotrypsin-like activity in human RPM18226 cell lysates using Suc-LLVY-AMC as substrate after 1 hr by fluorescence based microplate reader analysis; format: cell-free; settings: rpmi-8226
[8] = test system: BV-2; experiment: Antiinflammatory activity against mouse BV2 cells assessed as reduction in LPS-induced IL-1alpha release after 24 hrs by ELISA; format: functional, cell-based
[9] = biological target: T3, Proteasome subunit beta type-9 (Homo sapiens) (UniProt P28065); experiment: Inhibition of LMP2 subunit in human DLD1 cells over expressing ABCB1 at 1 uM using Ac-PAL-AMC as substrate incubated for 4 hrs; format: cell-based; settings: DLD-1
T3 sequence (whole entry): T1 sequence (P28065 whole entry)

[10] = biological target: T4, Proteasome Macropain subunit MB1 (Homo sapiens, UniProt P28074); experiment: Inhibition of Beta5 in human 20S […] usingAc-WLA-AMC as substrate after 1 hr by fluorescence based microplate reader analysis
T4 sequence (P28074 whole entry): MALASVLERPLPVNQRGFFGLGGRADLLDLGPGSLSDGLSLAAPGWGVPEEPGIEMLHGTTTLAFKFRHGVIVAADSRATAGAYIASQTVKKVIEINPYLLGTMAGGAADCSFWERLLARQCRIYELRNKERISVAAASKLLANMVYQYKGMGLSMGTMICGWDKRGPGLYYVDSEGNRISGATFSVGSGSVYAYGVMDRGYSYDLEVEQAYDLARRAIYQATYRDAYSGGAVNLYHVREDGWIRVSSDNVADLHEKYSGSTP

[11] = biological target: T3, Proteasome subunit beta type-9 (Homo sapiens); experiment: Inhibition of immunoproteasome LMP2 subunit in human DLD1 cells over expressing ABCB1 at 3 uM using Ac-PAL-AMC as substrate incubated for 4 hrs in presence of reversin-121; format: cell-based; settings: DLD-1
[12] = test system: BV-2; experiment: Cytotoxicity against mouse BV2 cells up to 10 uM after 72 hrs by CellTiter 96 aqueous one solution reagent based assay; format: cell-based; settings: bv-2, 72 h
[13] = test system: WI-38; experiment: Cytotoxicity against human WI38 cells up to 10 uM after 72 hrs by CellTiter 96 aqueous one solution reagent based assay; format: cell-based; settings: wi-38, 72 h
[14] = biological target: T3, Proteasome subunit beta type-9 (Homo sapiens); experiment: Inhibition of LMP2 in human ARPE-19 cells assessed as suppression of TNFalpha-stimulated EMT by measuring vimentin expression after 24 hrs by immunofluorescence analysis; format: cell-based
[15] = biological target: T3, Proteasome subunit beta type-9 (Homo sapiens); experiment: Inhibition of LMP2 in human ARPE-19 cells assessed as suppression of TNFalpha-stimulated EMT by measuring E-cadherin expression after 24 hrs by immunofluorescence analysis; format: cell-based
[16] = test system: Mus musculus; experiment: Antialzheimer activity in transgenic Tg2576 ICR mouse at 10 mg/kg, iv administered twice per week for 3 weeks by Morris water maze test; format: functional, organism-based

IC50 [4]: 0.07 to 0.0806 µM
IC50 [6]: > 10 µM
IC50 [7]: > 10 µM
inhibition [9]: Active
IC50 [10]: > 10 µM
inhibition [11]: Active
inhibition [14]: Active
inhibition [15]: Active
Structure (SMILES): CC(C)C[C@H](NC(=O)[C@H](Cc1ccccc1)NC(=O)[C@@H]1CCCN1C(=O)CNC(=O)c1cnccn1)C(=O)[C@@]1(C)CO1
Activity [1]: 100%
Activity [2]: Non-Toxic
Activity [3]: Non-Toxic
Activity [5]: Active
Activity [8]: Active
Activity [12]: Non-Toxic
Activity [13]: Non-Toxic
Activity [16]: Active
